# In patent US8563738B2, “Ligands for copper-catalyzed azide-alkyne cycloaddition reactions” (The Scripps Research Institute, priority 2007, dated 2013):
# Columns and labels:
# [1] = Ligand screening by reaction calorimetry (peak reaction power); details: high reactant concentrations, 1% Cu, 4:1 DMSO:aqueous, 65° C.
# Source text: Reaction calorimetry was used to evaluate the relative merits of various ligands under practical conditions of organic synthesis, e.g., involving high concentrations of azide and alkyne reagents and low loadings of catalyst. After correction for instrumental heat transfer parameters, thermograms provide a direct real-time measure of reaction rate (power output); integration gives the overall time-vs.-completion curve. […] All such measurements were made in the same 4:1 DMSO:aqueous solvent as before, but at 65° C. rather than room temperature, in order to keep the product triazole in solution at the higher concentrations used.
# Calorimetry was performed in an Omnical INSIGHT® 10-channel reaction calorimeter using 40 mL glass vials. In a typical run all the reaction components but one were introduced into the vials inside an inert atmosphere glovebox, and vials were sealed with septum caps. The last reaction component to be added was placed in a Hamilton gastight syringe. The vials and syringes were then allowed to equilibrate inside the preheated instrument (65° C.) for 30 minutes. The reaction was started in all vials by depressing all of the syringes simultaneously. Two vials out of ten were charged only with solvent to obtain readings allowing for compensation for the heat of mixing. The thermograms registered in these two channels upon addition of the last component were used to construct the baseline for the other 8 channels.
# Since heat is not transferred to the instrument sensor instantaneously, the thermogram registered by the instrument is dependent on the characteristics of the instrument and reaction vessel. Correction for these extraneous factors must be applied to the recorded thermograms to obtain instrument-independent data (Rosner, T.; et al. J. Am. Chem. Soc. 2001, 123, 1848-1855; Liu, J.-S.; et al. Thermochimica Acta 1994, 236, 113-122). The appropriate dynamic correction function is built into the instrument operating software. Use of vendor supplied software produces the same result as manual correction.
# By the same token, catalysts such as Cu.1 that give observable, but not very strong, calorimetry signals cannot be fully analyzed by converting thermograms to completion curves, because a significant amount of the total energy output is lost below the detection threshold of the instrument. TBTA (1) falls into this category, classified as “moderate” ligands. […] However, peak power values (i.e., maximum reaction rate) provided a reproducible relative measure of relative catalytic efficiency.
# Ligands were screened under the following conditions: 250 mM benzyl azide, 454 mM phenylacetylene, 2 mM CuSO4, 4 mM ligand, 25 mM sodium ascorbate. Phenylacetylene was the last component added. Initial screening was performed with at least two independent trials for each ligand. Candidates showing promising activity were then examined with at least three independent trials to obtain reliable estimations of experimental error.
# [2] = Second-order rate constants of CuAAC reaction by LC-MS of quenched aliquots; details: for change in rate with pH: pH of the aqueous component raised from 7 to 8; for relative catalytic rate (second-order specific activity): ligand:Cu 2:1, 0.1 mM Cu, 1-2 mM substrates, 4:1 DMSO:aqueous buffer, sodium ascorbate
# Description: The relative effectiveness of Cu-ligand complexes was evaluated on the reaction between phenylacetylene and benzyl azide in 4:1 DMSO:aqueous buffer containing sodium ascorbate as reducing agent, which has served as the standard reaction in previous mechanistic studies (Rodionov, V. O.; et al. Angew. Chem. Int. Ed. 2005, 44, 2210-2215). Ligand:Cu ratios are used herein to describe the amounts of each component added, and designate mixtures of ligands and copper ions according to those ratios for convenience. However, it must be emphasized that the active catalysts are not necessarily composed of those same ratios of ligand and metal as are placed in the reaction vessel. The equilibria that govern the composition of these catalysts are discussed below, and their study will be the subject of a separate publication.
# Absolute rates were determined under relatively dilute conditions (1-2 mM in substrates), which were required to slow the reactions enough so that aliquots could be reliably taken over a substantial fraction of the completion curve. Each aliquot was immediately quenched and the amount of product formed monitored by quantitative LC-MS against an internal standard. In this way, the clean conversion to triazole was verified in each case, information that is not available by following the disappearance of azide or alkyne by infrared spectroscopy. Plots of product concentrations vs. time fitted very well to second-order kinetics over at least 70% of the reaction (FIG. 2A). […] For this reason, comparisons were made between second-order specific activities (rate constants determined at a standard Cu concentration of 0.1 mM) for catalysts composed of 2:1 mixtures of ligands and Cu(I), in the presence of excess ascorbate relative to Cu.
# Reagent stock solutions were freshly prepared before use. In a typical experiment, reactions were set up in the first column of a deep-well polypropylene microtiter plate (2.5 mL well volume). 100 μL of 30% H2O2 and 100 μL of ethanol were dispensed into all other wells.
# The reactions were started by the addition of the final component (typically CuSO4 solution). Aliquots of 100 μL were taken at 1-5 minute intervals from the reaction wells with a multichannel pipetman, and transferred to the subsequent columns of wells for quenching. After the desired number of aliquots have been quenched in this fashion, the contents of the plate were transferred to a standard polystyrene 96-well plate for analysis.
# LC-MS analysis was performed on an Agilent 1100 (G1946D) instrument, equipped with a 35 mm Agilent ZORBAX® 3.5μ or 1.8μ SB-C18 column. The elution solvent for the detection of 1-benzyl-4-phenyl-1,2,3-triazole was 55:45 H2O:CH3CN, with 0.5% TFA. Analysis of the other triazole products required a solvent gradient (typically from 50:50 to 25:75 H2O:CH3CN, 0.5% TFA over the course of 4-5 minutes). Detection was performed in single ion mode (SIM), which typically allowed for quantitative triazole detection down to 0.1 μM. 1-benzyl-4-phenyl-1,2,3-triazole-d7 was used as internal reference for all experiments.
# Equations (2) and (3) were used to find the value of k (kobs) that gives the best fit curve to the experimental data of [P] vs. time.
# FIG. 2 summarizes the rate data. Note that the rate constants obtained here are really specific activities at 0.10 mM Cu catalyst concentration. Very similar results were obtained at pH 8 in the presence of 180 mM vs. 10 mM HEPES buffer.
# FIG. 2B. Conditions: 1 mM BnN3, 2 mM PhCCH, 0.1 mM CuSO4, 0.2 mM ligand, 4:1 DMSO:HEPES (180 mM), 25 mM NaAsc; pH verified with meter after ascorbate addition. The dots mark observed data points; the solid line is the best second-order fit; an initial “burst” of catalytic activity was not counted in the reported rate constants. Experimental error in rate constants upon repeat measurement is <15% (usually ca. 10%), except where noted.
# FIG. 2C. […]
# [3] = as above; details: 4:1 DMSO:buffer, Tris buffer over a standard range of concentrations
# Solubility of ligands = details: for solubility in common organic solvents: including DMSO
Compound,relative catalytic activity by calorimetry [1],relative catalytic rate (second-order specific activity) [2],other results
"Cn1ccn(-c2cccc(-n3ccn(C)[c]3=[Cu][Cl])n2)[c]1=[Cu][Cl] [Ligand S3, reference compound]",in the range of TBTA (1),–,–
"c1ccc2[nH]c(CN(Cc3nc4ccccc4[nH]3)Cc3nc4ccccc4[nH]3)nc2c1 [(BimH)3, Tris-(2-benzimidazolylmethyl)amine, reference compound]",–,–,change in rate with pH [2]: more sensitive; effect of Tris buffer on rate [3]: slowed significantly
"CCOC(=O)CCCCn1c(CN(Cc2nc3ccccc3n2CCCCC(=O)OCC)Cc2nc3ccccc3n2CCCCC(=O)OCC)nc2ccccc21 [(BimC4E)3, Triethyl 5,5′,5″-(2,2′,2″-nitrilotris(methylene)tris(1H-benzimidazole-2,1-diyl))tripentanoate]",–,just as active as its hydrolyzed (carboxylate) analog,–
"c1ccc2[nH]c(CNCc3nc4ccccc4[nH]3)nc2c1 [H(BimH)2, Bis-(2-benzimidazolylmethyl)amine, reference compound]",–,slower than those observed for the “ligand-free” case,–
"O=C([O-])CCCCn1c(CN(Cc2nc3ccccc3n2CCCCC(=O)[O-])Cc2nc3ccccc3n2CCCCC(=O)[O-])nc2ccccc21.[K+].[K+].[K+] [(BimC4A)3, Potassium 5,5′,5″-(2,2′,2″-nitrilotris(methylene)tris(1H-benzimidazole-2,1-diyl))tripentanoate]",best in the class,noticeably better catalyst performance,relative catalytic rate (second-order specific activity) ([2]; listed as (BimC4A)): strong rate acceleration through a wide pH range
"c1ccc(CN(Cc2ccccn2)Cc2ccccn2)nc1 [(Py)3, tris(pyridylmethyl)amine, reference compound]",one of the best ligands in calorimetry screening,slower than those observed for the “ligand-free” case,–
"O=S(=O)(O)c1ccc2[nH]c(CN(Cc3nc4cc(S(=O)(=O)O)ccc4[nH]3)Cc3nc4cc(S(=O)(=O)O)ccc4[nH]3)nc2c1 [(BimH/S)3, reference compound]",–,strong rate acceleration through a wide pH range,–
CC(C)(C)OC(=O)Cn1c(CN(Cc2nc3ccccc3n2CC(=O)OC(C)(C)C)Cc2nc3ccccc3n2CC(=O)OC(C)(C)C)nc2ccccc21 [(BimC1E′)3],–,performing as well as the parent structure (BimH)3,–
"c1ccc2[nH]c(CN(Cc3nc4ccccc4[nH]3)Cc3nc4ccccc4s3)nc2c1 [(Bth)(BimH)2, N,N-bis((1H-benzimidazol-2-yl)methyl)-1-(benzothiazol-2-yl)methanamine]",largely inactive,–,–
"Cc1cc(C)c(-n2ccn(-c3c(C)cc(C)cc3C)[c]2=[Cu][Cl])c(C)c1 [Ligand S1, reference compound]",no detectable exothermic heat flow,–,–
O=C([O-])CCCCCn1c(CN(Cc2nc3ccccc3n2CCCCCC(=O)[O-])Cc2nc3ccccc3n2CCCCCC(=O)[O-])nc2ccccc21.[K+].[K+].[K+] [(BimC5A)3],best in the class,noticeably better catalyst performance,–
O=C([O-])CCCn1c(CN(Cc2nc3ccccc3n2CCCC(=O)[O-])Cc2nc3ccccc3n2CCCC(=O)[O-])nc2ccccc21.[K+].[K+].[K+] [(BimC3A)3],best in the class,noticeably better catalyst performance,–
"c1ccc2sc(CN(Cc3nc4ccccc4s3)Cc3nc4ccccc4s3)nc2c1 [(Bth)3, Tris-(2-benzothiazolylmethyl)amine]",largely inactive,–,change in rate with pH [2]: more sensitive; solubility in common organic solvents (Solubility of ligands): unusually low solubility
"CCOC(=O)Cn1c(CN(Cc2nc3ccccc3n2CC(=O)OCC)Cc2nc3ccccc3n2CC(=O)OCC)nc2ccccc21 [(BimC1E)3, Triethyl 2,2′,2″-(2,2′,2″-nitrilotris(methylene)tris(1H-benzimidazole-2,1-diyl)) triethanoate]",–,performing as well as the parent structure (BimH)3,–
Cn1c(CN(Cc2nc3ccccc3n2C)Cc2nc3ccccc3n2C)nc2ccccc21 [(BimC1H)3],–,performing as well as the parent structure (BimH)3,solubility in common organic solvents (Solubility of ligands): unusually low solubility
"c1ccc2[nH]c(CN(Cc3nc4ccccc4s3)Cc3nc4ccccc4s3)nc2c1 [(Bth)2(BimH), N-((1H-benzimidazol-2-yl)methyl)-1-(benzothiazol-2-yl)-N-(benzothiazol-2-ylmethyl)methanamine]",largely inactive,best ligand in the series,effect of HEPES buffer on rate ([2]; 180 mM HEPES): faster turnover; change in rate with pH [2]: very little change in rate
O=C([O-])Cn1c(CN(Cc2nc3ccccc3n2CC(=O)[O-])Cc2nc3ccccc3n2CC(=O)[O-])nc2ccccc21.[K+].[K+].[K+] [(BimC1A)3],–,one of the least effective catalysts in the series,water solubility (Solubility of ligands; water): water-soluble
